We go through 3 molecules from the NIST ThermoML archive (doi:10.1016/j.jct.2017.08.006).

Numbers after ± are expanded uncertainties.

The conditions of data set [1]: Liquid; for mass density: 293.15 K, 101.33 kPa, Pycnometric method.
Data set [2] can be described thus: refractive index (Na D-line) (dimensionless). Conditions: 101.33 kPa, Liquid, Standard Abbe refractometry.
Data set [3] is described as follows: Boiling temperature at pressure P. Conditions: Liquid, Ebulliometric method (Recirculating still).

On to `COCOCC(C)C` [1-(methoxymethoxy)-2-methylpropane], for which the mass density (usually the mass of a sample divided by its volume) in data set [1] came to 832.5 ± 1 kg/m3. For the same molecule, the refractive index (as a rule, a measure of how strongly the sample bends light) in data set [2] (293.15 K) worked out at 1.385 ± 0.0007; in data set [2] (298.15 K) it was 1.3827 ± 0.0007. Further, the “Boiling temperature at pressure P” value in data set [3] (5.01 kPa) was 33.5 ± 0.18 °C; in data set [3] (9.98 kPa) it was 47 ± 0.16 °C; in data set [3] (14.69 kPa), 55.23 ± 0.13 °C; in data set [3] (19.75 kPa), 62.17 ± 0.12 °C; in data set [3] (26.67 kPa) it was 69.60 ± 0.11 °C; in data set [3] (40.02 kPa), 80.57 ± 0.11 °C. In addition, the “Boiling temperature at pressure P” value in data set [3] (53.72 kPa) came to 89.19 ± 0.11 °C; in data set [3] (65.01 kPa) it was 95.2 ± 0.1 °C; in data set [3] (79.21 kPa) it was 101.51 ± 0.1 °C; in data set [3] (90 kPa), 105.86 ± 0.1 °C; in data set [3] (101.33 kPa) it was 109.98 ± 0.1 °C; in data set [3] (116.34 kPa), 115.03 ± 0.1 °C. Moreover, the “Boiling temperature at pressure P” value in data set [3] (120 kPa) came to 116.21 ± 0.1 °C; in data set [3] (125.01 kPa), 117.72 ± 0.1 °C; in data set [3] (130 kPa) it was 119.27 ± 0.1 °C.
Consider `CCCCO` [butan-1-ol], for which the mass density in data set [1] is 809.5 ± 1 kg/m3. In addition, the refractive index in data set [2] (298.15 K) stood at 1.3971 ± 0.0007.
As to `CC(C)CO` [2-methyl-1-propanol], the mass density in data set [1] is on record as 801.8 ± 1 kg/m3. Further, the vapor or sublimation pressure (as a rule, the equilibrium pressure above the liquid or solid) in data set [1] (381.1 K, Ebulliometric method (Recirculating still)) was 101.33 ± 0.51 kPa. Further, the refractive index in data set [2] (298.15 K) is on record as 1.3939 ± 0.0007.
